# Reference: ChEMBL document CHEMBL1151334, “Arugosin F: a new antifungal metabolite from the coprophilous fungus Ascodesmis sphaerospora” (1998)
# What was measured:
# Assay type in all cases: functional
# Bacillus subtilis = experiment: Antibacterial activity against Bacillus subtilis ATCC 6051 at 200 ug/disk by standard disk assay; details: read-out: IZ
# Sordaria fimicola = experiment: Antifungal activity against Sordaria fimicola NRRL 6459 at 200 ug/disk by paper disk assay
# Ascobolus = experiment: Antifungal activity against Ascobolus furfuraceus NRRL 6460 at 200 ug/disk by paper disk assay
# Staphylococcus aureus = experiment: Antibacterial activity against Staphylococcus aureus ATCC 29213 at 200 ug/disk by standard disk assay; details: read-out: IZ
SMILES,zone of inhibition at 200 µg/disc (Bacillus subtilis) [mm],Activity (Sordaria fimicola) [%],inhibition at 200 µg/disc (Ascobolus) [%],zone of inhibition at 200 µg/disc (Staphylococcus aureus) [mm]
Cc1cc(O)c2c(c1)C(O)Oc1cccc(O)c1C2=O (configuration not stated) [ARUGOSIN F],15,50,100,7
Cc1cc(CO)c2c(=O)c3c(O)cccc3oc2c1,7,33,20,
